The values below come from US8906939B2, “3-cyano-4-(4-tetrahydropyran-phenyl)-pyridin-2-one derivatives” (Janssen Pharmaceuticals, Inc., priority 2007, dated 2014).

By melting point is commonly meant the temperature, or range, at which the solid turns liquid.

Series [1] has as its target T1, human mGluR2 receptor (Homo sapiens, UniProt Q14416).
T1 construct: expressed in transfected cells; host or cells: CHO cells (membrane preparation)
As to the kind of experiment: [35S]GTPγS binding assay, mGluR2 positive allosteric modulation (GTPγS-PAM). It counts as biochemical. The settings on record: membranes from CHO cells transfected with human mGluR2; in presence of glutamate at EC25 concentration; averages of duplicate values of 11-concentration response curves; read-out: GTPgS - hR2 PAM pEC50 (converted). The source says: The compounds provided in the present invention are positive allosteric modulators of mGluR2. These compounds appear to potentiate glutamate responses by binding to an allosteric site other than the glutamate binding site. The response of mGluR2 to a concentration of glutamate is increased when compounds of formula (I) are present. Compounds of formula (I) are expected to have their effect substantially at mGluR2 by virtue of their ability to enhance the function of the receptor. The behaviour of positive allosteric modulators tested at mGluR2 using the [^35S]GTPγS binding assay method described below and which is suitable for the identification of such compounds, and more particularly the compounds according to formula (I), are shown in Table 3.
[^35S]GTPγS Binding Assay
The [^35S]GTPγS binding assay is a functional membrane-based assay used to study G-protein coupled receptor (GPCR) function whereby incorporation of a non-hydrolysable form of GTP, [^35S]GTPγS (guanosine 5′-triphosphate, labelled with […] ^35S), is measured. The G-protein […] subunit catalyzes the exchange of guanosine 5′-diphosphate (GDP) by guanosine triphosphate (GTP) and on activation of the GPCR by an agonist, [^35S]GTPγS, becomes incorporated and cannot be cleaved to continue the exchange cycle (Harper (1998) Current Protocols in Pharmacology 2.6.1-10, John Wiley & Sons, Inc.). […] Here we describe the use of the [^35S]GTPγS binding assay using membranes from cells transfected with the human mGluR2 receptor and adapted from Schaffhauser et al ((2003) Molecular Pharmacology 4:798-810) for the detection of the positive allosteric modulation (PAM) properties of the compounds of this invention.
CHO-cells were cultured to pre-confluence and stimulated with 5 mM butyrate for 24 hours, prior to washing in PBS, and then collection by scraping in homogenisation buffer (50 mM Tris-HCl buffer, pH 7.4, 4° C.). Cell lysates were homogenized briefly (15s) using an ultra-turrax homogenizer. The homogenate was centrifuged at 23 500×g for 10 minutes and the supernatant discarded. The pellet was resuspended in 5 mM Tris-HCl, pH 7.4 and centrifuged again (30 000×g, 20 min, 4° C.). The final pellet was resuspended in 50 mM HEPES, pH 7.4 and stored at −80° C. in appropriate aliquots before use. Protein concentration was determined by the Bradford method (Bio-Rad, USA) with bovine serum albumin as standard.
Measurement of mGluR2 positive allosteric modulatory activity of test compounds in membranes containing human mGluR2 was performed using frozen membranes that were thawed and briefly homogenised prior to pre-incubation in 96-well microplates (15 μg/assay well, 30 minutes, 30° C.) in assay buffer (50 mM HEPES pH 7.4, 100 mM NaCl, 3 mM MgCl2, 50 μM GDP, 10 μg/ml saponin,) with increasing concentrations of positive allosteric modulator (from 0.3 nM to 50 μM) and either a minimal pre-determined concentration of glutamate (PAM assay), or no added glutamate. For the PAM assay, membranes were pre-incubated with glutamate at EC25 concentration, i.e. a concentration that gives 25% of the maximal response glutamate, and is in accordance to published data (Pin et al. (1999) Eur. J. Pharmacol. 375:277-294). After addition of [^35S]GTPγS (0.1 nM, f.c.) to achieve a total reaction volume of 200 μl, microplates were shaken briefly and further incubated to allow [^35S]GTPγS incorporation on activation (30 minutes, 30° C.). The reaction was stopped by rapid vacuum filtration over glass-fibre filter plates (Unifilter 96-well GF/B filter plates, Perkin-Elmer, Downers Grove, USA) microplate using a 96-well plate cell harvester (Filtermate, Perkin-Elmer, USA), and then by washing three times with 300 μl of ice-cold wash buffer (Na2PO4.2H2O 10 mM, NaH2PO4.H2O 10 mM, pH=7.4). […]
In general terms: GTPγS is a poorly hydrolysed GTP analogue; its binding reports G protein activation.

T1 sequence (Q14416 19-872): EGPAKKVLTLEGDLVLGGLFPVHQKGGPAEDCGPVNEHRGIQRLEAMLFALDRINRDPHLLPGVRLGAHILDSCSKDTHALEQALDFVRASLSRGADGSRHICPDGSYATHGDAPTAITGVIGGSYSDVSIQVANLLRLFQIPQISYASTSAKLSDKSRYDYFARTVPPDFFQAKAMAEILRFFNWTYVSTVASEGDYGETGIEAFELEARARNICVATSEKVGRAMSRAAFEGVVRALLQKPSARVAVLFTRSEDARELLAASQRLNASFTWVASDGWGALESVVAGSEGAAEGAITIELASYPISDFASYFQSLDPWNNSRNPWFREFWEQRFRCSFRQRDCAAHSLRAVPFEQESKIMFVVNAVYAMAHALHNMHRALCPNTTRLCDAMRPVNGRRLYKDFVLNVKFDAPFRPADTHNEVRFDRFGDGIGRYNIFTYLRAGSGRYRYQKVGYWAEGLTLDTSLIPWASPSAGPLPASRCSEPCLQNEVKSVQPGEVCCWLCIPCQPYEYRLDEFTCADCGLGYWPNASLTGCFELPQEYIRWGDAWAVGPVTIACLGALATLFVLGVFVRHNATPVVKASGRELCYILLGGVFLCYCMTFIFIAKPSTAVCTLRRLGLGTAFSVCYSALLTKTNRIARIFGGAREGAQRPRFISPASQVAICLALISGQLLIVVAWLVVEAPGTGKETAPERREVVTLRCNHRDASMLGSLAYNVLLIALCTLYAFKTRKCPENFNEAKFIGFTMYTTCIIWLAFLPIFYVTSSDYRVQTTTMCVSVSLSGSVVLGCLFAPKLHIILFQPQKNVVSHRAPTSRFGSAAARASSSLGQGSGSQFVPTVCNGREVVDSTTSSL

Take `CC(C)CCn1ccc(-c2ccc(NC3CCOCC3)c(F)c2)c(C#N)c1=O` [Compound 11]: in series [1], the EC50 is 398 nM. Same read-out and setting: then `N#Cc1c(-c2ccc(OC3CCOCC3)c(Cl)c2)ccn(CCC2CC2)c1=O` [Compound 4, 4-[3-Chloro-4-(tetrahydro-pyran-4-yloxy)-phenyl]-1-(2-cyclopropyl-ethyl)-2-oxo-1,2-dihydro-pyridine-3-carbonitrile], with 282 nM. `N#Cc1c(-c2ccc(NC3CCOCC3)c(F)c2)ccn(CC2CC2)c1=O` [Compound 1, 1-Cyclopropylmethyl-4-[3-fluoro-4-(tetrahydro-pyran-4-ylamino)-phenyl]-2-oxo-1,2-dihydro-pyridine-3-carbonitrile]: the melting point was 249.5 °C. In addition, the EC50 in series [1] is approximately 1000 nM. For `N#Cc1c(-c2ccc(NC3CCOCC3)c(C(F)(F)F)c2)ccn(CC2CC2)c1=O` [Compound 3, 1-Cyclopropylmethyl-2-oxo-4-[4-(tetrahydro-pyran-4-ylamino)-3-trifluoromethyl-phenyl]-1,2-dihydro-pyridine-3-carbonitrile], the EC50 in series [1] is 1230 nM. As to `CCCCn1ccc(-c2ccc(OC3CCOCC3)cc2F)c(C#N)c1=O` [Compound 9], the melting point stood at 136 °C. The EC50 in series [1] was 631 nM. Turning to `N#Cc1c(-c2ccc(NC3CCOCC3)c(C(F)(F)F)c2)ccn(CCC2CC2)c1=O` [Compound 7], the EC50 in series [1] is 437 nM. The same measure, in the same setting: then `N#Cc1c(-c2ccc(NC3CCOCC3)c(Cl)c2)ccn(CC2CC2)c1=O` [Compound 2, 1-Cyclopropylmethyl-4-[3-chloro-4-(tetrahydro-pyran-4-ylamino)-phenyl]-2-oxo-1,2-dihydro-pyridine-3-carbonitrile], with 676 nM.

The molecule `N#Cc1c(-c2ccc(NC3CCOCC3)c(Cl)c2)ccn(CCC2CC2)c1=O` [Compound 6] had a melting point of more than 300 °C. For the same molecule, the EC50 in series [1] is 219 nM.

On to `CC(C)CCn1ccc(-c2ccc(OC3CCOCC3)c(Cl)c2)c(C#N)c1=O` [Compound 5], for which, in series [1], the EC50 was 162 nM. Same read-out and setting: the figure for `CC(C)CCn1ccc(-c2ccc(NC3CCOCC3)cc2F)c(C#N)c1=O` [Compound 10] is 1580 nM.

For the molecule `CCCCn1ccc(-c2ccc(NC3CCOCC3)cc2)c(C#N)c1=O` [Compound 8], the melting point came to 195 °C. For the same molecule, the EC50 in series [1] was 2510 nM. On to `CC(C)CCn1ccc(-c2ccc(NC3CCOCC3)c(Cl)c2)c(C#N)c1=O` [Compound 12], for which, in series [1], the EC50 is 316 nM.
